Reference: US11976098B2, “Cooked millet prolamin peptide for inhibiting alpha-amylase and alpha-glucosidase” (China Agricultural University, priority 2022, dated 2024)

System: α-glucosidase
Test: In vitro α-glucosidase inhibitory activity (PNPG, 405 nm)
Format: biochemical
Conditions: sample 0.5%, 37° C., pH 6.8
Procedure: The method for determining α-glucosidase activity is as follows: First, the solution of substrate 4-Nitrophenyl […] (PNPG) with a concentration of 1.505 mg/mL (5 mmol/L of PNPG dissolved in 0.1 mol/L phosphate buffer with a pH of 6.8) was prepared, a Na2CO3 solution with a concentration of 0.2 mol/L was prepared, and α-glucosidase solution (0.8 U/ml of α-glucosidase dissolved in 0.1 mol/L phosphate buffer with a pH of 6.8) was prepared. After the solutions were prepared, the following two groups were set for determination: [table] After preparing according to the above table, the resulting solution was shaken in a water bath at 37° C. for 10 min, followed by adding 100 μL of enzyme solution and continuing to shake in the water bath at 37° C. for 10 min. Finally, 50 μL of Na2CO3 solution was added, and the absorbance was measured at 405 nm. The formula for calculating the α-glucosidase inhibition rate is as follows: [formula]

For “FALQGAAFLGSA (The sequence is synthetized) [SEQ ID NO: 3, small peptide screened from cooked millet prolamin]”, the α-glucosidase inhibition rate was 17.67%.

“AGAGPQGRP (The sequence is synthetized) [SEQ ID NO: 2, small peptide screened from cooked millet prolamin]” gave a α-glucosidase inhibition rate of 31.57%.

With “KAHAALGAK (The sequence is synthetized) [SEQ ID NO: 6, small peptide screened from cooked millet prolamin]” the α-glucosidase inhibition rate was 13.77%.

Substance “KTGSGAEGMHGGK (The sequence is synthetized) [SEQ ID NO: 5, small peptide screened from cooked millet prolamin]” has a α-glucosidase inhibition rate of 15.64%.

“QQLRPF (The sequence is synthetized) [SEQ ID NO: 1, small peptide screened from cooked millet prolamin]” showed a α-glucosidase inhibition rate of 32.67%.

In the case of “QQQQLLR (The sequence is synthetized) [SEQ ID NO: 4, small peptide screened from cooked millet prolamin]”, the α-glucosidase inhibition rate is reported as 15.94%.
